The source of these data is US8106047B2, “Triazolophthalazines” (NYCOMED GmbH, priority 2005, dated 2012).

The structures appear in SMILES notation. Entries after “also recorded” stand apart in the source; their conditions may differ.

Broadly, the melting point is the temperature, or range, at which the solid turns liquid.

The subject of one data set is HUVEC monolayers. The data set can be described thus: Inhibition of macromolecule (HRP) permeability of thrombin-stimulated HUVEC monolayers. Format: cell-based, human. Particulars: 1 U/ml thrombin; for Thrombin-induced increase of HRP permeability (hyperpermeability): 10 μM Motapizone (PDE3) and 1 μM RP73401 (PDE4) together; for IC50: Homo sapiens, 1 h, HUVEC on Transwells, 1 μM RP73401, 10 μM Motapizone, 1 mM SNP or 100 nM ANP, HRP passage after 60 min, read-out: Inhibition of SNP- or ANP-induced permeability, −log IC50 [mol/l] (converted). Here is the method:
Method to Assess Inhibition of Macromolecule Permeability of HUVEC Monolayers
The procedure to measure macromolecule permeability of endothelial cell monolayers followed the method described by Langeler & van Hinsbergh (1988) with modifications. Human umbilical vein endothelial cells were isolated from umbilical cords according to standard procedures (Jaffe et al. 1973) and cultured in endothelial cell basal medium (EBM) supplemented with 2% FCS, 0.5 ng/ml VEGF, 10 ng/ml bFGF, 5 ng/ml EGF, 20 ng/ml Long R3 IGF-1, 0.2 μg/ml hydrocortisone, 1 μg/ml ascorbic acid, 22.5 μg/ml heparin, 50 μg/ml gentamicin, 50 ng/ml amphotericin B (EGM2 purchased from Promocell GmbH, Heidelberg, Germany). At confluency, cells were trypsinized and replated at 73000 cells per well on 3 μm polycarbonate filter Transwell inserts (Costar GmbH, Bodenheim, Germany) precoated with 10 μg cm^2−1 Fibronectin (Sigma, Taufkirchen, Germany). HUVECs were cultured in EGM2 (100 μl in the upper wells and 600 μl in the lower wells) over four days prior the experiments and medium was changed every other day. At the day of the experiment culture medium was replaced by M199 with 1% human serum albumin. Endothelial cells were preincubated with cyclic nucleotide modifiers (the selective PDE3 inhibitor motapizone, the selective PDE4 inhibitor RP73401, the cGMP generators ANP or SNP and PDE2 inhibitors) for 15 min. HUVECs were then stimulated with Thrombin (1 U ml^−1) (Sigma, Taufkichen, Germany) and horsh radish peroxidase (5 μg/ml) (Sigma, Taufkirchen, Germany) as the macromolecule marker protein was added to the upper wells. Following 1 h incubation time Transwells were removed and the activity of horsh radish peroxidase that penetrated the endothelial cell monolayer was measured in the lower wells with the 3,3′,5,5′-tetramethylbenzidine liquid substrate system from Sigma (Taufkirchen, Germany).
In parallel, compounds according to the invention can inhibit Thrombin-induced permeability of HUVEC monolayers for horsh radish peroxidase (HRP) as a macromolecule marker. […] The concentration-dependent inhibition of HRP permeability at different concentrations was assessed from the percent inhibition in the presence and absence of the PDE2 inhibitors and in the presence of 1 μM RP73401, 10 μM Motapizone and 100 nM ANP.
Inhibition of SNP- or ANP-Induced Permeability of HUVEC Monolayers:
HUVEC cells on 3 μm polycarbonate filters (Transwells) were preincubated with 1 μM RP73401 (to block PDE4) and 10 μM Motapizone (to block PDE3), 1 mM SNP or 100 nM ANP and test sample over 15 min and then stimulated with 1 U/ml thrombin. HRP passage into the lower wells was assessed after 60 min.

Compound `COc1ccc(-c2nnc3c4ccccc4c(Nc4ccc(C#N)cc4)nn23)cc1` [Compound T2, 4-[3-(4-Methoxyphenyl)-[1,2,4]triazolo[3,4-a]phthalazin-6-ylamino]-benzonitrile] gave a melting point of 314 °C.
The compound `COc1ccc(-c2nnc3c4ccccc4c(Nc4cccc(-c5nn[nH]n5)c4)nn23)cc1` [Compound T3, [3-(4-Methoxy-phenyl)-[1,2,4]triazolo[3,4-a]phthalazin-6-yl]-[3-(2H-tetrazol-5-yl)-phenyl]-amine] displayed a melting point of 305 to 308 °C.
`CC1CC(=O)NN=C1c1cc(-n2ccnc2)cs1` (stereo not drawn) [Motapizone, reference compound]: the “Thrombin-induced increase of HRP permeability (hyperpermeability)” value in the data set with HUVEC monolayers is on record as “completely abolished; also recorded: completely blocked”.
`COc1ccc(Cc2nnc3c4ccccc4c(Nc4cccc(-c5nn[nH]n5)c4)nn23)cc1` [Compound T8, [3-(4-Methoxy-benzyl)-[1,2,4]triazolo[3,4-a]phthalazin-6-yl]-[3-(2H-tetrazol-5-yl)-phenyl]-amine] displayed a melting point of 292 to 293 °C.
`COc1ccccc1-c1nnc2c3ccccc3c(Nc3cccc(NS(=O)(=O)N(C)C)c3)nn12` [Compound 32] gave a melting point of 229 to 233 °C. Also, the IC50 in the data set on HUVEC monolayers is 0.501 to 126 nM.
`COc1ccc(-c2nnc3c4ccccc4c(Nc4cccc(NS(=O)(=O)N5CCOCC5)c4)nn23)cc1` [Compound 34, Morpholine-4-sulfonic acid {3-[3-(4-methoxy-phenyl)-[1,2,4]triazolo[3,4-a]phthalazin-6-ylamino]-phenyl}-amide]: the melting point is 264 °C (dec.). In addition, the IC50 with HUVEC monolayers was 0.501 to 126 nM.
For `COc1ccc(-c2nnc3c4ccccc4c(Nc4cccc(NS(=O)(=O)c5cccs5)c4)nn23)cc1` [Compound 17, Thiophene-2-sulfonic acid {3-[3-(4-methoxy-phenyl)-[1,2,4]triazolo[3,4-a]phthalazin-6-ylamino]-phenyl}-amide], in that order: 327 to 331 °C and 0.501 to 126 nM.
In the case of `CN(C)S(=O)(=O)c1cccc(Nc2nn3c(-c4ccccc4C(F)(F)F)nnc3c3ccccc23)c1` [Compound 33, [3-(N,N-dimethylsulfamoyl)-phenyl]-[3-(2-trifluoromethyl-phenyl)-[1,2,4]triazolo[3,4-a]phthalazin-6-yl]-amine], the IC50 in the data set on HUVEC monolayers was 0.501 to 126 nM.
As for `COc1ccc(-c2nnc3c4ccccc4c(Nc4ccc(NS(=O)(=O)Cc5ccccc5)cc4)nn23)cc1` [Compound 4, N-{4-[3-(4-Methoxy-phenyl)-[1,2,4]triazolo[3,4-a]phthalazin-6-ylamino]-phenyl}-1-phenyl-methanesulfonamide], the melting point lay in the range of 304 to 306 °C. Moreover, the IC50 in the data set on HUVEC monolayers is 0.501 to 126 nM.
Turning to `COc1ccc(C(=O)Nc2c(Cl)cncc2Cl)cc1OC1CCCC1` [RP73401, reference compound], in the data set on HUVEC monolayers, the “Thrombin-induced increase of HRP permeability (hyperpermeability)” value is reported as “completely abolished; also recorded: completely blocked”.
For `COc1ccc(-c2nnc3c4ccccc4c(Nc4cccc(S(=O)(=O)N(C)C)c4)nn23)cc1` [Compound 24, 3-[3-(4-Methoxy-phenyl)-[1,2,4]triazolo[3,4-a]phthalazin-6-ylamino]-N,N-dimethyl-benzenesulfonamide], the melting point was in the range of 220 to 227 °C.
In the case of `COc1ccc(-c2nnc3c4ccccc4c(Nc4ccc(S(=O)(=O)N(C)C)cc4)nn23)cc1` [Compound 7, [4-(N,N-dimethylsulfamoyl)-phenyl]-[3-(4-methoxy-phenyl)-[1,2,4]triazolo[3,4-a]phthalazin-6-yl]-amine], the IC50 with HUVEC monolayers is 0.501 to 126 nM.
The compound `COc1ccc(-c2nnc3c4ccccc4c(Nc4cccc(S(N)(=O)=O)c4)nn23)cc1` [Compound 23, 3-[3-(4-Methoxy-phenyl)-[1,2,4]triazolo[3,4-a]phthalazin-6-ylamino]-benzenesulfonamide] came in with a melting point of 342 to 349 °C.
Consider `COc1ccc(-c2nnc3c4ccccc4c(Nc4cccc(NS(=O)(=O)c5ccc(NC(C)=O)cc5)c4)nn23)cc1` [Compound 18, N-(4-{3-[3-(4-Methoxy-phenyl)-[1,2,4]triazolo[3,4-a]phthalazin-6-ylamino]-phenylsulfamoyl}-phenyl)-acetamide], for which the melting point fell in the range of 328 to 331 °C.
On the same count and under the same terms, under `COc1ccc(-c2nnc3c4ccccc4c(Nc4cccc(NS(=O)(=O)c5cn(C)cn5)c4)nn23)cc1` [Compound 11, 1-Methyl-1H-imidazole-4-sulfonic acid {3-[3-(4-methoxy-phenyl)-[1,2,4]triazolo[3,4-a]phthalazin-6-ylamino]-phenyl}-amide] stands 184 to 187 °C.
The same measure, in the same setting: next, `COc1ccc(-c2nnc3c4ccccc4c(Nc4ccc(-c5nn[nH]n5)cc4)nn23)cc1` [Compound T4, [3-(4-Methoxy-phenyl)-[1,2,4]triazolo[3,4-a]phthalazin-6-yl]-[4-(2H-tetrazol-5-yl)-phenyl]-amine]: 281 to 284 °C.
`COc1ccc(-c2nnc3c4ccccc4c(Nc4cccc(S(=O)(=O)N(C)C)c4)nn23)cc1` [Compound 13, [3-(N,N-dimethylsulfamoyl)-phenyl]-[3-(4-methoxy-phenyl)-[1,2,4]triazolo[3,4-a]phthalazin-6-yl]-amine]: the IC50 in the data set on HUVEC monolayers is 0.501 to 126 nM.
Compound `COc1ccc(-c2nnc3c4ccccc4c(Nc4ccc(NS(=O)(=O)c5cn(C)cn5)cc4)nn23)cc1` [Compound 2, 1-Methyl-1H-imidazole-4-sulfonic acid {4-[3-(4-methoxy-phenyl)-[1,2,4]triazolo[3,4-a]phthalazin-6-ylamino]-phenyl}-amide] displayed a melting point of 346 to 348 °C.
Same read-out and setting: next, `COc1ccc(-c2nnc3c4ccccc4c(Nc4ccc(-c5nnn(C)n5)cc4)nn23)cc1` [Compound T6, [3-(4-Methoxy-phenyl)-[1,2,4]triazolo[3,4-a]phthalazin-6-yl]-[4-(2-methyl-2H-tetrazol-5-yl)-phenyl]-amine]: 289 to 293 °C.
Same read-out and setting: next, `COc1ccc(Cc2nnc3c4ccccc4c(Nc4ccc(S(=O)(=O)N5CCCCC5)cc4)nn23)cc1` [Compound 35, [3-(4-Methoxy-benzyl)-[1,2,4]triazolo[3,4-a]phthalazin-6-yl]-[4-(piperidine-1-sulfonyl)-phenyl]-amine]: 283 to 285 °C; `COc1ccc(-c2nnc3c4ccccc4c(Nc4cccc(-c5nnn(C)n5)c4)nn23)cc1` [Compound T5, [3-(4-Methoxy-phenyl)-[1,2,4]triazolo[3,4-a]phthalazin-6-yl]-[3-(2-methyl-2H-tetrazol-5-yl)-phenyl]-amine]: 256 to 259 °C.
As to `CN(C)S(=O)(=O)c1cccc(Nc2nn3c(-c4ccccc4Br)nnc3c3ccccc23)c1` [Compound 27, [3-(N,N-dimethylsulfamoyl)-phenyl]-[3-(2-bromo-phenyl)-[1,2,4]triazolo[3,4-a]phthalazin-6-yl]-amine], the IC50 with HUVEC monolayers is 0.501 to 126 nM.
In turn, `COc1ccc(-c2nnc3c4ccccc4c(Nc4cccc(NS(=O)(=O)c5ccc(C(C)=O)cc5)c4)nn23)cc1` [Compound 12, 4-Acetyl-N-{3-[3-(4-methoxy-phenyl)-[1,2,4]triazolo[3,4-a]phthalazin-6-ylamino]-phenyl}-benzenesulfonamide] displayed a melting point of 352 to 354 °C.
`COc1ccc(-c2nnc3c4ccccc4c(Nc4ccc(NS(=O)(=O)c5cccc(OC)c5)cc4)nn23)cc1` [Compound 5, 3-Methoxy-N-{4-[3-(4-methoxy-phenyl)-[1,2,4]triazolo[3,4-a]phthalazin-6-ylamino]-phenyl}-benzenesulfonamide] had a melting point of 290 °C.
Compound `COc1ccc(-c2nnc3c4ccccc4c(Nc4cccc(NS(=O)(=O)c5ccc(N6CCOCC6)nc5)c4)nn23)cc1` [Compound 16, 6-Morpholin-4-yl-pyridine-3-sulfonic acid {3-[3-(4-methoxy-phenyl)-[1,2,4]triazolo[3,4-a]phthalazin-6-ylamino]-phenyl}-amide] yielded a melting point of 323 to 329 °C.
Still for that read-out and setting: under `COc1ccc(Cc2nnc3c4ccccc4c(Nc4cccc(-c5nnn(C)n5)c4)nn23)cc1` [Compound T9, [3-(4-Methoxy-benzyl)-[1,2,4]triazolo[3,4-a]phthalazin-6-yl]-[3-(2-methyl-2H-tetrazol-5-yl)-phenyl]-amine] stands 262 to 264 °C.
